In patent US10947252B2, “Inhibitors of KEAP1-Nrf2 protein-protein interaction” (Janssen Pharmaceutica NV, priority 2018, dated 2021):

Assays:
[1] = tested on: Glo-Response ARE-luc2P HEK293 cell line; assay: ARE luciferase reporter cell-based assay; settings: Homo sapiens, HEK293, 24 h, average of results obtained;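 further: luciferase signal tracks Nrf2 activation of the ARE once compounds disrupt KEAP1-Nrf2 binding, read with One-Glo reagent, DMSO serving as low control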
[2] = target: Kelch domain of human KEAP1 (321-624 aa) (Homo sapiens (Human), UniProt Q14145); assay: KEAP1 KELCH ThermoFluor binding assay; settings: KEAP Kelch […], 1,8-ANS, pH 7.0, average of results obtained, read-out: Tf Kd;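 further: Ligand-induced melting temperature shift of E. coli-expressed KEAP1 Kelch protein, Kd estimated from concentration-response curves of ΔTm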
Sequence of Kelch domain of human KEAP1 (321-624 aa) (Q14145 321-624): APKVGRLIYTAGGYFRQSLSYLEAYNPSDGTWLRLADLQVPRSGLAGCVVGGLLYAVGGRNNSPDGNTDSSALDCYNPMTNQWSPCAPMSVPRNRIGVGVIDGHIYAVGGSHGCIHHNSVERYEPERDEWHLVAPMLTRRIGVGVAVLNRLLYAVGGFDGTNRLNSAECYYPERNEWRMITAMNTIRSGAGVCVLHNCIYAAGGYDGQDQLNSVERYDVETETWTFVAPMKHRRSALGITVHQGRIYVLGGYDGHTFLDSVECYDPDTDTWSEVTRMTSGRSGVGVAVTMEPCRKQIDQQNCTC

| SMILES | Kd [2] [nM] | EC50 [1] [nM] |
| --- | --- | --- |
| COC1CCN(CCOc2nc3c(cc2C)S(=O)(=O)N(Cc2cc([C@@H](c4ccn5c(C(F)(F)F)nnc5c4C)C(C)(C)C(=O)O)ccc2C)CC2(CC2)O3)CC1 (single isomer, unassigned) [Example 378, (*S)-3-(3-((7′-(2-(4-Methoxypiperidin-1-yl)ethoxy)-8′-methyl-1′,1′-dioxidospiro[cyclopropane-1,4′-pyrido[2,3-b][1,4,5]oxathiazepin]-2′(3′H)-yl)methyl)-4-methylphenyl)-2,2-dimethyl-3-(8-methyl-3-(trifluoromethyl)-[1,2,4]triazolo[4,3-a]pyridine-7-yl)propanoic Acid] | < 1 | 4 |
| Cc1ccc([C@H](CC(=O)O)c2ccn3c(C(F)(F)F)nnc3c2C)nc1CN1C[C@@H]2CCCCN2c2ncc(F)cc2S1(=O)=O (single isomer, unassigned) [Example 498, (*R)-3-(6-(((*S)-3-Fluoro-5,5-dioxido-7,7a,8,9,10,11-hexahydro-6H-dipyrido[2,1-d:2′,3′-f][1,2,5]thiadiazepin-6-yl)methyl)-5-methylpyridin-2-yl)-3-(8-methyl-3-(trifluoromethyl)-[1,2,4]triazolo[4,3-a]pyridin-7-yl)propanoic Acid] | < 1 | 14.7 |
| Cc1ccc(C(CC(=O)O)c2ccn3c(C(F)(F)F)nnc3c2C)nc1CN1CC2(COC2)Oc2ncccc2S1(=O)=O (stereo not drawn) [Example 493, 3-(6-((1′,1′-Dioxidospiro[oxetane-3,4′-pyrido[2,3-b][1,4,5]oxathiazepin]-2′(3′H)-yl)methyl)-5-methylpyridin-2-yl)-3-(8-methyl-3-(trifluoromethyl)-[1,2,4]triazolo[4,3-a]pyridin-7-yl)propanoic Acid] | < 1 | 1230 |
| Cc1ccc([C@@H](CC(=O)O)c2ccn3c(C(F)F)nnc3c2C)cc1CN1CC2(CC2)Oc2ncc(Cl)cc2S1(=O)=O (single isomer, unassigned) [Example 531, (*R)-3-(3-((8′-Chloro-1′,1′-dioxidospiro[cyclopropane-1,4′-pyrido[2,3-b][1,4,5]oxathiazepin]-2′(3′H)-yl)methyl)-4-methylphenyl)-3-(3-(difluoromethyl)-8-methyl-[1,2,4]triazolo[4,3-a]pyridin-7-yl)propanoic Acid] | < 1 | 113 |
| Cc1cnc2c(c1)S(=O)(=O)N(Cc1nc([C@@H](c3ccn4c(C(F)F)nnc4c3C)C(C)(C)C(=O)O)ccc1C)CC1(CNC1)O2 (single isomer, unassigned) [Example 632, (*S)-3-(3-(Difluoromethyl)-8-methyl-[1,2,4]triazolo[4,3-a]pyridin-7-yl)-2,2-dimethyl-3-(5-methyl-6-((8′-methyl-1′,1′-dioxidospiro[azetidine-3,4′-pyrido[2,3-b][1,4,5]oxathiazepin]-2′(3′H)-yl)methyl)pyridin-2-yl)propanoic Acid] | 21200 | 18100 |
| Cc1ccc([C@@H](c2ccn3c(C(F)(F)F)nnc3c2C)C(C)(C)C(=O)O)cc1CN1C[C@]2(CCOC2)Oc2ncccc2S1(=O)=O (single isomer, unassigned) [Example 381, (*S)-3-(3-(((*S)-1′,1′-Dioxido-4,5-dihydro-2H-spiro[furan-3,4′-pyrido[2,3-b][1,4,5]oxathiazepin]-2′(3′H)-yl)methyl)-4-methylphenyl)-2,2-dimethyl-3-(8-methyl-3-(trifluoromethyl)-[1,2,4]triazolo[4,3-a]pyridin-7-yl)propanoic Acid] | 2820 | 427 |
| CCn1nnc2c(C)c([C@@H](c3cc(CN4CC5(CC5)Oc5ncc(C)cc5S4(=O)=O)c(C)cn3)C(C)(C)C(=O)O)ccc21 (single isomer, unassigned) [Example 665, (*R)-3-(1-Ethyl-4-methyl-1H-benzo[d][1,2,3]triazol-5-yl)-2,2-dimethyl-3-(5-methyl-4-((8′-methyl-1′,1′-dioxidospiro[cyclopropane-1,4′-pyrido[2,3-b][1,4,5]oxathiazepin]-2′(3′H)-yl)methyl)pyridin-2-yl)propanoic Acid] | 180 | 497 |
| Cc1ncc([C@@H](c2ccn3c(C(F)(F)F)nnc3c2C)C(C)(C)C(=O)O)cc1CN1CC2(CCOCC2)Oc2ncccc2S1(=O)=O (single isomer, unassigned) [Example 571, (*R)-3-(5-((1′,1′-dioxido-2,3,5,6-tetrahydrospiro[pyran-4,4′-pyrido[2,3-b][1,4,5]oxathiazepin]-2′(3′H)-yl)methyl)-6-methylpyridin-3-yl)-2,2-dimethyl-3-(8-methyl-3-(trifluoromethyl)-[1,2,4]triazolo[4,3-a]pyridin-7-yl)propanoic Acid] | 5850 | > 20000 |

More lines, main results first:

| Kd [2] [nM] | SMILES | EC50 [1] [nM] |
| --- | --- | --- |
| < 1 | Cc1ccc(C(CC(=O)O)c2cc(OC3CC3)c3c(c2)nnn3C)cc1CN1C[C@H]2CCCCN2c2ncccc2S1(=O)=O (stereo in doubt) [Example 403, 3-(7-Cyclopropoxy-1-methyl-1H-benzo[d][1,2,3]triazol-5-yl)-3-(3-(((*R)-5,5-dioxido-7,7a,8,9,10,11-hexahydro-6H-dipyrido[2,1-d:2′,3′-f][1,2,5]thiadiazepin-6-yl)methyl)-4-methylphenyl)propanoic Acid] | 20.8 |
| 180 | Cc1ccc([C@@H](CC(=O)O)c2ccn3c(C(F)(F)F)nnc3c2C)cc1CN1C[C@H]2CN(C)CCN2c2ncccc2S1(=O)=O (single isomer, unassigned) [Example 182, (*R)-3-(4-Methyl-3-(((*R)-9-methyl-5,5-dioxido-7,7a,8,9,10,11-hexahydro-6H-pyrazino[2,1-d]pyrido[2,3-f][1,2,5]thiadiazepin-6-yl)methyl)phenyl)-3-(8-methyl-3-(trifluoromethyl)-[1,2,4]triazolo[4,3-a]pyridin-7-yl)propanoic Acid] | 1390 |
| < 1 | Cc1ccc([C@H](CC(=O)O)c2ccn3c(C(F)(F)F)nnc3c2C)cc1CN1C[C@H]2CCCN2c2ncc(C#N)cc2S1(=O)=O (single isomer, unassigned) [Example 207, (*S)-3-(3-(((R)-3-Cyano-5,5-dioxido-7a,8,9,10-tetrahydropyrido[2,3-f]pyrrolo[2,1-d][1,2,5]thiadiazepin-6(7H)-yl)methyl)-4-methylphenyl)-3-(8-methyl-3-(trifluoromethyl)-[1,2,4]triazolo[4,3-a]pyridin-7-yl)propanoic Acid] | 11 |
| 0.0054 | Cc1cnc2c(c1)S(=O)(=O)N(Cc1cc(C(CC(=O)O)c3ccn4c(C(F)(F)F)nnc4c3C)ccc1Cl)CC1CCCCN21 (stereo not drawn) [Example 89, 3-(4-Chloro-3-(((*S)-3-methyl-5,5-dioxido-7,7a,8,9,10,11-hexahydro-6H-dipyrido[2,1-d:2′,3′-f][1,2,5]thiadiazepin-6-yl)methyl)phenyl)-3-(8-methyl-3-(trifluoromethyl)-[1,2,4]triazolo[4,3-a]pyridine-7-yl)propanoic Acid] | 6.9 |
| < 1 | Cc1ccc([C@H](CC(=O)O)c2ccn3c(C(F)(F)F)nnc3c2C)cc1CN1C[C@H]2CCCCN2c2ncccc2S1(=O)=O (single isomer, unassigned) [Example 272, (*S)-3-(3-(((*R)-5,5-Dioxido-7,7a,8,9,10,11-hexahydro-6H-dipyrido[2,1-d:2′,3′-f][1,2,5]thiadiazepin-6-yl)methyl)-4-methylphenyl)-3-(8-methyl-3-(trifluoromethyl)-[1,2,4]triazolo[4,3-a]pyridin-7-yl)propanoic Acid] | 10.9 |
| 110 | Cc1ccc([C@H](CC(=O)O)c2ccn3c(C(F)(F)F)nnc3c2C)cc1CN1C[C@H]2CN(C)CCN2c2ncccc2S1(=O)=O (single isomer, unassigned) [Example 181, (*S)-3-(4-Methyl-3-(((*R)-9-methyl-5,5-dioxido-7,7a,8,9,10,11-hexahydro-6H-pyrazino[2,1-d]pyrido[2,3-f][1,2,5]thiadiazepin-6-yl)methyl)phenyl)-3-(8-methyl-3-(trifluoromethyl)-[1,2,4]triazolo[4,3-a]pyridin-7-yl)propanoic Acid] | 1110 |
| < 1 | Cc1cc2cc([C@H](CC(=O)O)c3ccc(C)c(CN4C[C@@H]5CCCCN5c5ncccc5S4(=O)=O)c3)n(C)c2nn1 (single isomer, unassigned) [Example 442, (*R)-3-(3,7-Dimethyl-7H-pyrrolo[2,3-c]pyridazin-6-yl)-3-(3-(((*S)-5,5-dioxido-7,7a,8,9,10,11-hexahydro-6H-dipyrido[2,1-d:2′,3′-f][1,2,5]thiadiazepin-6-yl)methyl)-4-methylphenyl)propanoic Acid] | 553 |
| < 1 | Cc1ccc(C(CC(=O)O)c2ccc3c(nnn3C3CC3)c2C)cc1CN1C[C@H]2CCCN2c2ncccc2S1(=O)=O (mixture of isomers) [Example 209, (R/S)-3-(1-Cyclopropyl-4-methyl-1H-benzo[d][1,2,3]triazol-5-yl)-3-(3-(((R)-5,5-dioxido-7a,8,9,10-tetrahydropyrido[2,3-f]pyrrolo[2,1-d][1,2,5]thiadiazepin-6(7H)-yl)methyl)-4-methylphenyl)propanoic Acid] | 8.8 |
| 1.1 | Cc1ccc([C@@H](CC(=O)O)c2ccc3c(nnn3C3CC3)c2C)cc1CN1C[C@H]2CCCN2c2ncccc2S1(=O)=O (single isomer, unassigned) [Example 211, (*R)-3-(1-Cyclopropyl-4-methyl-1H-benzo[d][1,2,3]triazol-5-yl)-3-(3-(((R)-5,5-dioxido-7a,8,9,10-tetrahydropyrido[2,3-f]pyrrolo[2,1-d][1,2,5]thiadiazepin-6(7H)-yl)methyl)-4-methylphenyl)propanoic Acid] | 42 |
| 60.3 | Cc1cc2cc([C@@H](CC(=O)O)c3ccc(C)c(CN4C[C@@H]5CCCCN5c5ncccc5S4(=O)=O)c3)n(C)c2nn1 (single isomer, unassigned) [Example 441, (*S)-3-(3,7-Dimethyl-7H-pyrrolo[2,3-c]pyridazin-6-yl)-3-(3-(((*S)-5,5-dioxido-7,7a,8,9,10,11-hexahydro-6H-dipyrido[2,1-d:2′,3′-f][1,2,5]thiadiazepin-6-yl)methyl)-4-methylphenyl)propanoic Acid] | > 20000 |
